{"source": "ChEMBL document CHEMBL4354827", "about": "“Discovery of Novel, Potent, Brain-Permeable, and Orally Efficacious Positive Allosteric Modulator of α7 Nicotinic Acetylcholine Receptor [4-(5-(4-Chlorophenyl)-4-methyl-2-propionylthiophen-3-yl)benzenesulfonamide]: Structure-Activity Relationship and Preclinical Characterization” (J Med Chem, 2020)", "key": {"Rattus norvegicus [1]": {"tested_on": "Rattus norvegicus", "test": "Improvement in social recognition scopolamine-induced Sprague-Dawley rat model of amnesia assessed as increase in reduction in social investigation time at 3 mg/kg, po administered as single dose prior to 1 hr training and measured after 30 mins (reference value: 9.81%)", "assay_type": "functional", "set-up": "scale not given: the % may be the effect or the level left"}, "[2]": {"test": "Cmax in Beagle dog at 1 mg/kg, iv after 0.083 to 144 hrs by LC-MS/MS analysis", "assay_type": "ADME, organism-based, Canis lupus familiaris", "set-up": "dose 1 mg/kg, route intravenous", "details": "in vivo; call rule not given here"}, "[3]": {"test": "Cmax in Wistar rat at 10 mg/kg, po after 0.25 to 144 hrs by LC-MS/MS analysis", "assay_type": "ADME, organism-based", "set-up": "dose 10 mg/kg, route oral", "details": "in vivo"}, "[4]": {"test": "Tmax in Wistar rat brain at 10 mg/kg, po after 1 to 144 hrs by LC-MS/MS analysis", "assay_type": "ADME, organism-based"}, "Rattus norvegicus [5]": {"tested_on": "Rattus norvegicus", "test": "Memory enhancement effect in time-delay induced Wistar rat model of amnesia assessed as increase in exploration time for novel object in retention trial at 1 mg/kg, po administered as single dose and measured on day 9 by novel object recognition test (reference value: 12.06 sec)", "assay_type": "functional"}, "Cytochrome P450 3A4": {"target": "Cytochrome P450 3A4 (Homo sapiens, UniProt P08684)", "sequence (P08684 whole entry)": "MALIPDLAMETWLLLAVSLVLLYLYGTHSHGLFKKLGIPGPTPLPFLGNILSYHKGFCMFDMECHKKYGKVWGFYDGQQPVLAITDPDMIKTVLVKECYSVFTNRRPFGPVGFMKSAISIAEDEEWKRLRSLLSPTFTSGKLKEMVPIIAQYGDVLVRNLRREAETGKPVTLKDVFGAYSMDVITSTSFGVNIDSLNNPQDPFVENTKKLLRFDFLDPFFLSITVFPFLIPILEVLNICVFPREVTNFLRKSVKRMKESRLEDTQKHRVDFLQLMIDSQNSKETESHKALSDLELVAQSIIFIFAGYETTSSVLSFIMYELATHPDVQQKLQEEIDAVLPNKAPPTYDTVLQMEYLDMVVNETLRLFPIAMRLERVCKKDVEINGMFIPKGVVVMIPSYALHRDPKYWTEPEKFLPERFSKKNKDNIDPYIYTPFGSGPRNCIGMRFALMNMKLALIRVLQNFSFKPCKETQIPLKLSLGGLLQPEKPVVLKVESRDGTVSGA", "test": "Inhibition of CYP3A4 (unknown origin) up to 10 uM", "assay_type": "ADME"}, "[6]": {"test": "Brain to plasma permeability coefficient, Kp in Wistar rat at 10 mg/kg, po after 1 hr by LC-MS/MS analysis", "assay_type": "ADME, organism-based"}, "Rattus norvegicus [7]": {"tested_on": "Rattus norvegicus", "test": "Improvement in social recognition time delay-induced Sprague-Dawley rat model of amnesia assessed as reduction in recognition index 3 mg/kg, po administered as single dose prior to 1 hr training and measured after 30 mins (reference value: 1)", "assay_type": "functional"}, "Rattus norvegicus [8]": {"tested_on": "Rattus norvegicus", "test": "Memory enhancement effect in time-delay induced Wistar rat model of amnesia assessed as increase in novel object discrimination index at 1 mg/kg, po administered as single dose and measured on day 9 by novel object recognition test (reference value: 0.03)", "assay_type": "functional"}, "[9]": {"test": "Cmax in human at 7.5 to 100 mg after 1 to 2.5 hrs", "assay_type": "ADME", "details": "in vivo"}, "[10]": {"test": "Drug concentration in Wistar rat brain at 10 mg/kg, po after 48 hrs by LC-MS/MS analysis", "assay_type": "ADME, organism-based", "details": "read-out: Drug uptake"}, "Rattus norvegicus [11]": {"tested_on": "Rattus norvegicus", "test": "Improvement in social recognition time delay-induced Sprague-Dawley rat model of amnesia assessed as increase in reduction in social investigation time at 0.50 mg/kg, po for 7 days and measured on day 9 (reference value: -0.5%)", "assay_type": "functional", "set-up": "scale not given: the % may be the effect or the level left"}, "Rattus norvegicus [12]": {"tested_on": "Rattus norvegicus", "test": "Memory enhancement effect in scopolamine-induced Wistar rat model of amnesia assessed as increase in discrimination index at 0.05 mg/kg, po for 7 days and measured on day 8 by novel object recognition test (reference value: 0.21)", "assay_type": "functional"}, "[13]": {"test": "Cmax in Wistar rat brain at 10 mg/kg, po after 1 to 144 hrs by LC-MS/MS analysis", "assay_type": "ADME, organism-based", "set-up": "dose 10 mg/kg, route oral"}, "[14]": {"test": "Protein binding in human plasma assessed as unbound fraction at 5 uM incubated for 16 hrs under shaking condition by LC/MS/MS based rapid equilibrium dialysis method", "assay_type": "ADME, cell-free"}, "[15]": {"test": "Clearance in BALB/c mouse at 1 mg/kg, iv after 0.083 to 144 hrs by LC-MS/MS analysis", "assay_type": "ADME, organism-based", "details": "in vivo"}, "[16]": {"test": "AUClast in Beagle dog at 1 mg/kg, iv after 0.083 to 144 hrs by LC-MS/MS analysis", "assay_type": "ADME, organism-based, Canis lupus familiaris", "set-up": "dose 1 mg/kg, time 0.083-144 hr, route intravenous", "details": "in vivo"}, "Rattus norvegicus [17]": {"tested_on": "Rattus norvegicus", "test": "Improvement in social recognition scopolamine-induced Sprague-Dawley rat model of amnesia assessed as reduction in recognition index at 0.50 mg/kg, po for 7 days measured after 24 hrs (reference value: 0.93)", "assay_type": "functional"}, "Cytochrome P450 2B6": {"target": "T1, Cytochrome P450 2B6 (Homo sapiens, UniProt P20813)", "T1 sequence (P20813 whole entry)": "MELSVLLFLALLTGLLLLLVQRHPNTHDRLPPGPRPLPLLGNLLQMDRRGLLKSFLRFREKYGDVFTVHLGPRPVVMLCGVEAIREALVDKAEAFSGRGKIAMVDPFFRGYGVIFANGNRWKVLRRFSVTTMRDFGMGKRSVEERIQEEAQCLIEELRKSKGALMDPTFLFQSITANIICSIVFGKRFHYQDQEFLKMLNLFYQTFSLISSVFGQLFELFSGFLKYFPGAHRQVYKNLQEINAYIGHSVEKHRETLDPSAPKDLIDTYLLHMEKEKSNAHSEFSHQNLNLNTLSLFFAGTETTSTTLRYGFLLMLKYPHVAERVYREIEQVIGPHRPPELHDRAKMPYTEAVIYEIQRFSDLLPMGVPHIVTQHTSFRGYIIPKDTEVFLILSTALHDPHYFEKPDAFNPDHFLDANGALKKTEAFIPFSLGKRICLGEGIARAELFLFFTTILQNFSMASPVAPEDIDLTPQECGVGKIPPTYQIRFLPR", "test": "Inhibition of CYP2B6 (unknown origin) up to 10 uM", "assay_type": "ADME"}, "Rattus norvegicus [18]": {"tested_on": "Rattus norvegicus", "test": "Memory enhancement effect in scopolamine-induced Wistar rat model of amnesia assessed as increase in exploration time for novel object in retention trial at 0.15 mg/kg, po administered as single dose and measured on day 9 by novel object recognition test (reference value: 12.09 sec)", "assay_type": "functional"}, "Rattus norvegicus [19]": {"tested_on": "Rattus norvegicus", "test": "Memory enhancement effect in time-delay induced Wistar rat model of amnesia assessed as increase in discrimination index at 0.5 mg/kg, po for 7 days and measured on day 8 by novel object recognition test (reference value: 0.12)", "assay_type": "functional"}, "Rattus norvegicus [20]": {"tested_on": "Rattus norvegicus", "test": "Memory enhancement effect in time-delay induced Wistar rat model of amnesia assessed as exploration time for object2 at 3 mg/kg, po administered as single dose after acquisition trial by novel object recognition test (reference value: 21.07 sec)", "assay_type": "functional"}, "[21]": {"test": "Metabolic stability in rat liver microsomes assessed as compound remaining at 1 uM preincubated for 5 mins followed by NADPH addition and measured after 30 mins by LC-MS/MS analysis", "assay_type": "ADME, Microsome", "details": "read-out: Stability"}, "Rattus norvegicus [22]": {"tested_on": "Rattus norvegicus", "test": "Memory enhancement effect in time-delay induced Wistar rat model of amnesia assessed as exploration time for novel object in retention trial at 0.15 mg/kg, po for 7 days and measured on day 8 by novel object recognition test (reference value: 15.37 sec)", "assay_type": "functional"}, "[23]": {"test": "Drug concentration in Wistar rat brain at 10 mg/kg, po after 24 hrs by LC-MS/MS analysis", "assay_type": "ADME, organism-based", "details": "read-out: Drug uptake"}, "[24]": {"test": "Drug concentration in Wistar rat plasma at 10 mg/kg, po after 4 hrs by LC-MS/MS analysis", "assay_type": "ADME, organism-based"}}}
{"compound": "CCC(=O)c1sc(-c2ccc(Cl)cc2)c(C)c1-c1ccc(S(N)(=O)=O)cc1", "values": [{"measurement": "Activity", "setting": "Rattus norvegicus [1]", "result": 55.09, "unit": "%"}, {"measurement": "Cmax", "setting": "[2]", "result": 3, "unit": "µM"}, {"measurement": "Cmax", "setting": "[3]", "result": 4.1, "unit": "µM"}, {"measurement": "Tmax", "setting": "[4]", "result": 4, "unit": "h"}, {"measurement": "Time", "setting": "Rattus norvegicus [5]", "result": 25.93, "unit": "s"}, {"measurement": "inhibition (INH)", "setting": "Cytochrome P450 3A4", "result": "Not Active"}, {"measurement": "Kp at 1 h", "setting": "[6]", "result": 4.63}, {"measurement": "Activity_index", "setting": "Rattus norvegicus [7]", "result": 0.47}, {"measurement": "Activity_index", "setting": "Rattus norvegicus [8]", "result": 0.44}, {"measurement": "Cmax", "setting": "[9]", "result": "25.1 to 1620", "unit": "ng/mL"}, {"measurement": "concentration at 48 h", "setting": "[10]", "result": 5.53, "unit": "µM"}, {"measurement": "Activity", "setting": "Rattus norvegicus [11]", "result": 46.16, "unit": "%"}, {"measurement": "Activity_index", "setting": "Rattus norvegicus [12]", "result": 0.3}, {"measurement": "Cmax", "setting": "[13]", "result": 9.2, "unit": "µM"}, {"measurement": "fraction unbound at 16 h, 5 µM", "setting": "[14]", "result": 0.0015}, {"measurement": "clearance", "setting": "[15]", "result": 3.6, "unit": "mL/min/kg"}, {"measurement": "AUC(0-t)", "setting": "[16]", "result": 47, "unit": "µM·h"}, {"measurement": "Activity_index", "setting": "Rattus norvegicus [17]", "result": 0.75}, {"measurement": "inhibition (INH)", "setting": "Cytochrome P450 2B6", "result": "Not Active"}, {"measurement": "Time", "setting": "Rattus norvegicus [18]", "result": 12.8, "unit": "s"}, {"measurement": "Activity_index", "setting": "Rattus norvegicus [19]", "result": 0.58}, {"measurement": "Time", "setting": "Rattus norvegicus [20]", "result": 21.46, "unit": "s"}, {"measurement": "remaining at 0.5 h, 1 µM", "setting": "[21]", "result": 94, "unit": "%"}, {"measurement": "Time", "setting": "Rattus norvegicus [22]", "result": 7.15, "unit": "s"}, {"measurement": "concentration at 24 h", "setting": "[23]", "result": 6.52, "unit": "µM"}, {"measurement": "concentration at 4 h", "setting": "[24]", "result": 0.85, "unit": "µM"}]}
